Measured values reported in PubChem BioAssay (NCI).
Where “and” joins values, the source holds several entries; their conditions need not be identical. Equal values may be shown once.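 Results reflect a 48-hour exposure of cells in 96-well plates to compound at five concentrations. GI50 is the concentration that inhibits growth by half. TGI: total growth inhibition.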

Assays:
Assay in all cases: DTP human tumour cell line panel, 48 h
HCT-15 colon = system: HCT-15 colon
HL-60(TB) leukemia = system: HL-60(TB) leukemia
MDA-MB-435 = system: MDA-MB-435
OVCAR-4 ovarian = system: OVCAR-4 ovarian
RPMI-8226 leukemia = system: RPMI-8226 leukemia
SF-268 CNS = system: SF-268 CNS
SF-295 CNS = system: SF-295 CNS
SK-MEL-2 melanoma = system: SK-MEL-2 melanoma
SR leukemia = system: SR leukemia
U251 CNS = system: U251 CNS

SMILES	GI50 (HCT-15 colon)	TGI (HCT-15 colon) [nM]	GI50 (HL-60(TB) leukemia)	TGI (HL-60(TB) leukemia)	GI50 (MDA-MB-435) [nM]	TGI (MDA-MB-435) [nM]	GI50 (OVCAR-4 ovarian)	TGI (OVCAR-4 ovarian) [nM]	GI50 (RPMI-8226 leukemia)	TGI (RPMI-8226 leukemia) [nM]	GI50 (SF-268 CNS)	TGI (SF-268 CNS) [nM]	GI50 (SF-295 CNS)	TGI (SF-295 CNS) [nM]	GI50 (SK-MEL-2 melanoma) [nM]	TGI (SK-MEL-2 melanoma) [nM]	GI50 (SR leukemia)	TGI (SR leukemia) [nM]	GI50 (U251 CNS)	TGI (U251 CNS) [nM]
Fc1ccc(-c2c(-c3ccncc3)nc3n2CCS3)cc1	> 25000 nM	> 25000	> 25000 nM	> 25000 nM	> 25000	> 25000	> 25000 nM	> 25000	> 25000 nM	> 25000	> 25000 nM	> 25000	> 25000 nM	> 25000	> 25000	> 25000	> 25000 nM	> 25000	> 25000 nM	> 25000
Oc1ccc(C=Nc2ccccc2O)cc1		> 100000		42100 nM		33000		> 100000		> 100000		> 100000		> 100000		57300		> 100000		> 100000
O=C(C(=O)c1cc2ccccc2[nH]1)c1cc2ccccc2[nH]1		> 347000		> 347000 nM				299000		> 110000		> 347000		> 347000		> 347000		> 110000		> 347000
C=C(CCCCC)CN1CCCC1C(C)=O (configuration not stated)		> 100000		19700 nM				99300		40000		> 100000		> 94700		> 74700		40100		> 100000
O=C1N[C@@H]2[C@@H](O)[C@@H](O)[C@H](O)C[C@H]2c2cc3c(c(O)c21)OCCO3	270 nM	1800	190 nM	599 nM	269	1220	217 nM	838	256 nM	910	247 nM	1080	388 nM	2650	286	1060	245 nM	27400	238 nM	8420
CC[C@H](C)[C@H](NC(=O)[C@H]1CCCCN1C)C(=O)N(C)[C@H](C[C@@H](OC(C)=O)c1cccc(C(=O)N[C@@H](Cc2ccccc2)C[C@H](C)C(=O)OC)n1)C(C)C	8.15 nM and 7.02 nM	9640	1.7 nM and < 2.5 nM	6.55 nM and < 2.5 nM	0.28	1.43	27.7 nM and 13.8 nM	> 25000	2.68 nM and 2.5 nM	14500	4.98 nM and 6.61 nM	> 25000	4.33 nM and 2.5 nM	7.76	2.5	10300	0.55 nM and 2.5 nM	> 25000	4.08 nM and 3.81 nM	> 25000
O=C(O)CSc1n[nH]c(=O)[nH]c1=O		> 100000		> 100000 nM		> 100000		> 100000		> 100000		> 100000		> 100000		> 100000		> 100000		> 100000
Cc1cnc2ccc(C)c([N+](=O)[O-])c2c1NCCCN(C)C		> 100000		> 100000 nM				> 100000		> 100000		> 100000		> 100000		> 100000		> 100000		> 100000
Cc1nc([N+](=O)[O-])cn1-c1nc2ccccn2c1[N+](=O)[O-]		> 100000				> 100000		> 100000		> 100000		> 100000		> 100000		> 100000		> 100000		> 100000
COc1ccc(Cc2c3cc(O)c(=O)cc-3ccn2C)cc1				> 100000 nM				> 100000		> 100000		98200		> 100000		> 100000		37000		> 100000
CN[C@H]1CN(c2ccc3c(=O)c(C(=O)O)cn(-c4nccs4)c3n2)C[C@@H]1OC	1130 nM	7720	292 nM	2070 nM	1290	3510	2270 nM	9220	1080 nM	> 24000	706 nM	6490	332 nM	2370	1510	3560	50.8 nM	777	420 nM	7230
O=c1oc2ccc(I)cc2c(=O)n1-c1ccc(Br)cc1F	1280 nM	7890	588 nM	3740 nM	938	6420	1120 nM	16500	398 nM	2570	673 nM	8520	1720 nM	3410	385	2290	605 nM	> 34100	750 nM	> 37500
CNC(=O)c1ccc(N2C(=S)N(c3cnc(C#N)c(C(F)(F)F)c3)C(=O)C23CCC3)cc1F	> 100000 nM	> 100000	63900 nM	> 100000 nM	> 100000	> 100000	> 79200 nM	> 100000	59300 nM	> 100000	> 100000 nM	> 100000	> 100000 nM	> 100000	> 100000	> 100000	51500 nM	> 100000	> 100000 nM	> 100000
COc1ccc(C2(Cl)c3ccccc3N(c3ccccc3)c3ccccc32)cc1	909 nM	10800	542 nM	4250 nM	242	1560	447 nM	2810	218 nM	1360	758 nM	2880	301 nM	1850	377	1850	357 nM	3280	50.5 nM	1290
C[C@@H](Oc1cc(-n2cnc3ccc(OC4CCN(C)CC4)cc32)sc1C(N)=O)c1ccccc1Cl	82.7 nM	3550	8.71 nM	2920 nM	5.49	15.9	1620 nM	9090	84.2 nM	6660	22 nM	4690	20.7 nM	4340			10.3 nM	532	15.5 nM	4130
